Results reported in PMC6196658, “Activity of Thioallyl Compounds From Garlic Against Giardia duodenalis Trophozoites and in Experimental Giardiasis” (Frontiers in Cellular and Infection Microbiology, 2018).
In brackets after ≈: the same amount, converted by molar mass. Several values for one entry are separate records, joined by “and”; a condition that tells them apart may be missing. Equal entries are not always repeated. Where two headings read alike, the source gives them in different places.

Experiments:
[1] = system: thiol groups exposed in G. duodenalis trophozoite proteins; assay: Thiol-modifying activity (inhibition of thiol-DTNB complexes); assay type: biochemical, Giardia duodenalis; settings: 100 μg soluble trophozoite protein, 10 min 37°C, DTNB 412 nm
Protocol: The technique reported by Lawson and Wang ([1993]) was followed. In these assays trophozoites were collected from 60 mL flasks, washed 3 times with PBS and resuspended in 500 μL PBS containing a 1:12.5 dilution of a commercial mixture of protease inhibitors (Complete^TM, Roche Diagnostics GmbH, Indianapolis, IN, USA) and lysed by sonication at 12 microns/60% amplitude (Ultrasonic apparatus Sonic UVX1130PB). Soluble proteins were recovered by centrifugation at 15,400 × g for 30 min at 4°C and protein concentration was determined by the Bradford technique. These samples were adjusted to a concentration of 1 mg/mL. Reactions were carried out in 1.5 mL microcentrifuge tubes with a mixture of 100 μg protein (100 μL) and NaH2PO4 45 mM pH 7.0 mM (800 μL) to which increasing volumes of TACs stocks or a positive control with the thiol derivatizing agent MMTS prepared at 50 mM in the same buffer, were added and total volume was adjusted to 1 mL. After incubation for 10 min at 37°C, 100 μL of 1.5 mM dithionitrobenzoic acid (DTNB, Ellman's reagent) were added to each tube and following incubation for 10 min at room temperature the absorbances (yellow solutions) were recorded at 412 nm (Smart Spec 3000^TM, Bio-Rad, Hercules, CA, USA). A calibration curve was obtained using increasing volumes (0–100 μL) of 15.5 mM cysteine instead protein extracts and the maximal blocking concentration (MBC) corresponding to a complete absence of thiol-DTNB complexes produced by TACs were calculated using the least-square method (Microsoft Excel^TM).

[2] = system: G. duodenalis trophozoites; assay: In vitro susceptibility, subculture in liquid medium (SCLM); assay type: cell-based, Giardia duodenalis (WB strain); settings: for MLC (mM) ±SD / IC50: SCLM, 24 h exposure; for IC50: read-out: IC50 (mM) ±SD
[3] = system: cysteine protease activities in trophozoite lysates; assay: Proteolytic activity assay (gelatin zymogram); assay type: biochemical, Giardia duodenalis
Protocol: Trophozoite lysates were prepared as mentioned above except that cell lysis was carried out by sonication in 1.5 mL microcentrifuge tubes under ice bath using eight 15-s pulses at 80% amplitude with resting periods of 30 s (Ultrasonic Processor mod. CV19). Protein concentration was adjusted to 2 mg/mL and aliquoted in 25 μL fractions that were incubated for 30 min room temperature with 2–5 μL stock solutions of representative TACs (ALC, DADS, and AM). The reaction mixtures were diluted in Laemmli's sample buffer, loaded in wells of 10% acrylamide-02% gelatin slab gels and these were electrophoretically analyzed using 80 V/4°C. After this, gels were incubated in a solution of triton X-100 2.5% (v/v) in water for 1 h and washed 3 times with distilled water. Bands with proteolytic activity were detected as follows: gels were incubated in acetate buffer pH 5.5 with 1 mM DTT for 16 h at 37°C under constant stirring, washed 3 times with distilled water and stained with Coomassie blue (BioRad) for 2 h at 37°C under constant stirring. Finally, gels were washed with distilled water and incubated with a solution of 5% acetic acid/40% methanol (v/v). Gel images were documented with a UVP High Performance Ultraviolet Transilluminator and software Launch DocItLS.

[4] = system: G. duodenalis trophozoites; assay: Annexin V-PI flow cytometry (apoptosis/necrosis); assay type: cell-based, Giardia duodenalis; settings: 0.48 μM, 24 h
Protocol: (§1) The identification and quantitative determinations of trophozoites were carried out as follows: (a) apoptosis or necrosis were determined using anti-annexin V-fluorescein isothiocyanate (FITC) antibodies or PI as respective markers, (b) oxidative stress was determined by formation of reactive oxygen species (ROS) with the fluorescent ROS-complexing agent 5-(and 6)-carboxy 2′7′-dichlorodihydrofluorescein diacetate (H2DCFDA), and (c) determination of trophozoites cell cycle stages (G1, S, G2, and G2/M) after exposure to ALC or to a control drug (albendazole, ABZ) was carried out as previously described (Martínez-Espinosa et al., [2015]). In all these assays 20,000 cells per sample were recorded.

[5] = system: G. duodenalis trophozoites; assay: Cell cycle stages, PI flow cytometry; assay type: cell-based, Giardia duodenalis; settings: 1.35 μM, 24 h
Protocol: as §1

[6] = system: G. duodenalis trophozoites; assay: ROS formation, H2DCFDA flow cytometry; assay type: cell-based, Giardia duodenalis
Protocol: as §1

[7] = system: G. duodenalis trophozoites; set-up: method as in Argüello-García et al., 2004; settings: positive control drug; ref Argüello-García et al., 2004; cited from earlier work
[8] = system: G. duodenalis trophozoites; assay: Efficacy in experimental giardiasis; settings: read day 13
Protocol: Eighty male Mongolian gerbils (M. unguiculatus) 6–10 weeks old, weighted 45–60 g and sentinel-checked gerbils free of intestinal parasites were kept in individual cages and distributed in 12 groups of 6 animals per treatment and experimental infections were performed as described elsewhere (Argüello-García and Ortega-Pierres, [1997]). In brief, animals were inoculated intragastrically with 1 × 10^6 G. duodenalis trophozoites in 500 μl sterile PBS per os using gavage under ether anesthesia. Control animals received 500 μl sterile PBS each. […] As additional control, one group of animals received MTZ (38.4 mg/kg at single or double dose). […] Treatment efficacy was evaluated by determining the presence or absence of trophozoites in intestinal contents of control and treated gerbils at day 13 post-infection. For this, gerbils were euthanized by an intraperitoneal injection of pentobarbital at a dose of 150 mg/kg to minimize stress and to reduce suffering, then a 10 cm-long section of intestine (from stomach ending, equivalent to nearly the entire small intestine) was excised after laparotomy, and it was longitudinally opened and rinsed in 20 mL PBS at 4°C for 20 min under shaking (720 rpm, Heidolph^TM rotatory shaker) to determine trophozoites number after parasite detachment from microvilli. Supernatant was collected and centrifuged at 750 × g for 10 min at 4°C, cell pellet was resuspended in 1 mL PBS and trophozoites were counted using a haemocytometer. Gerbils were scored as cured if no trophozoites were recovered from infected animals.

IEC6 cell monolayers = assay: Toxicity of TACs on IEC6 cell monolayers; assay type: cell-based; settings: 275 mM, without giardipain-1, 100 min
Protocol: (§2) Additional assays were carried out using the MLCs of TACs (without giardipain-1) previously obtained in trophozoite cultures to monitor their toxicity. These solutions were added to monolayers of the intestinal cell line IEC6 grown in 1 cm^2-microwells and incubated for 100 min at 37°C. After incubation, supernatants were discarded and monolayers were fixed with 2% paraformaldehyde in PBS. The effects of TACs and E64 on the cytolytic effect of giardipain-1 were evaluated by light microscopy using Nomarski optics (Axioskop 40, Zeiss).

giardipain-1 = target: T1, giardipain-1 (Giardia intestinalis, UniProt P92132); assay: Inhibition of cytolytic effect of giardipain-1 on IEC6 cell monolayers; assay type: cell-based, Giardia duodenalis; settings: 100 min
T1 construct: the 25 kDa band that contains the processed form of the cathepsin B-like protease named as giardipain-1; endogenous in cells
Protocol: as §2

T1 sequence (P92132 75-300): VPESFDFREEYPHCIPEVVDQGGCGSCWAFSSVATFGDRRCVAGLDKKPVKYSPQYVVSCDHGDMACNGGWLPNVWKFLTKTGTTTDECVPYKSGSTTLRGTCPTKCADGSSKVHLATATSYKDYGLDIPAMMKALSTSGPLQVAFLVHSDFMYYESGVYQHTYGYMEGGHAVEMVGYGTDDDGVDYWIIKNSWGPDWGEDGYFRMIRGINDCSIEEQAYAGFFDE

## CSS(C)(=O)=O [MMTS, methyl methanethiosulfonate, reference compound]
[1]
  MBC (maximal blocking concentration) ± SD: 55.45 ± 3.2 mmol/mg protein

## C=CCSSSCC=C [DATS, diallyl trisulfide]
[1]
  MBC (maximal blocking concentration) ± SD: > 200 mmol/mg protein and 201.61 ± 33.4 mmol/mg protein
[2]
  MLC (mM) ±SD: 1.35 ± 0.18 mM (≈ 241 µg/mL)

## O=C([O-])c1cc[c]([Hg][OH])cc1.[Na+] [pHMB, sodium p-hydroxymercuribenzoate, reference compound]
[3]; 10 mM
  effect on proteolytic bands in zymogram: full inhibition of all proteolytic bands

## S-allyl-L-cysteine [SAC]
[1]
  MBC (maximal blocking concentration) ± SD: 1260.9 mmol/mg protein and 1260.99 ± 125.6 mmol/mg protein
[2]
  MLC (mM) ±SD: 69.1 mM
  IC50: 40.8 ± 6.3 mM
[2]; listed as S-Allyl Cysteine (SAC)
  MLC (mM) ±SD: 69.10 ± 13.1 mM

## C=CCSC [AMS, allyl methyl sulfide]
[1]
  MBC (maximal blocking concentration) ± SD: 845.9 mmol/mg protein and 845.96 ± 78.1 mmol/mg protein
[2]
  MLC (mM) ±SD: 74.28 mM (≈ 6550 µg/mL)
  IC50: 40.3 ± 3.5 mM
[2]; listed as Allyl Methyl Sulfide (AMS)
  MLC (mM) ±SD: 74.28 ± 12.3 mM (≈ 6550 µg/mL)

## C=CCSCC=C [DAS, diallyl sulfide]
[1]
  MBC (maximal blocking concentration) ± SD: 351.3 mmol/mg protein and 351.34 ± 78.9 mmol/mg protein
[2]; Giardia duodenalis
  IC50: 14.5 ± 2.3 mM
[2]
  MLC (mM) ±SD: 23.71 mM (≈ 2710 µg/mL)
[2]; listed as Diallyl Sulfide (DAS)
  MLC (mM) ±SD: 23.71 ± 6.0 mM (≈ 2710 µg/mL)

## CCCSc1ccc2nc(NC(=O)OC)[nH]c2c1 [ABZ, albendazole]
[4]
  R1 cells positive for necrosis (PI+): 5%
  cells in apoptosis (early plus late): 41.0%
[5]
  cells at G2 phase: 69.9%
  cells at S phase: 22.1%
[6]; ABZ control, 0.48 μM per Figure 9, 24 h
  cells positive for ROS (total): 33.85%

## Cc1ncc([N+](=O)[O-])n1CCO [MTZ, metronidazole, reference compound]
[2]; Giardia duodenalis, 3.0 μM, 24 h, positive control, read-out: inhibition of trophozoite growth
  inhibition at 3 µM: 45 to 55%
[2]; Giardia duodenalis, 5.9 μM, 24 h, positive control, read-out: inhibition of trophozoite growth
  inhibition at 5.9 µM: > 95%
[7]
  IC50: 0.003 mM
  MLC: 0.0059 mM (≈ 1.01 µg/mL)
[8]; 36 mg/kg at twice dose
  cure rate (gerbils without trophozoites): 5 out of 6
[8]; 36 mg/kg single dose
  cure rate (gerbils without trophozoites): 3 out of 6

## CC(C)(C)OO [TBHP, tert-butyl hydroperoxide]
[6]; TBHP control, 400 μM per Figure 9, 24 h
  cells positive for ROS (total): 17.1%

## C=CCSSCC=C [DADS, diallyl disulphide]
[1]
  MBC (maximal blocking concentration) ± SD: > 200 mmol/mg protein and 224.58 ± 18.8 mmol/mg protein
IEC6 cell monolayers
  toxicity to IEC6 cell monolayers: affected some cells
giardipain-1; 275 mM pre-incubated 30 min with giardipain-1 16 μg/mL
  effect on giardipain-1 cytopathic damage in IEC6 monolayers: reduced the frequency of cells displaying apoptotic damage
[2]
  MLC (mM) ±SD: 2.66 mM (≈ 389 µg/mL)
  IC50: 1.4 ± 0.6 mM
[2]; listed as Diallyl Disulfide (DADS)
  MLC (mM) ±SD: 2.66 ± 0.8 mM (≈ 389 µg/mL)
[3]; 275 mM
  effect on proteolytic bands in zymogram: could diminish similar activities except for the one at 60 kDa

## CC(C)C[C@H](NC(=O)[C@H]1O[C@@H]1C(=O)O)C(=O)NCCCCN=C(N)N [E64, reference compound]
giardipain-1; 20 μM pre-incubated 30 min with giardipain-1 16 μg/mL
  effect on giardipain-1 cytopathic damage in IEC6 monolayers: efficiently inhibited the giardipain-1 induced damage
[3]; 20 μM
  effect on proteolytic bands in zymogram: selective inhibition on the 25 kDa band

## C=CCS [AM, allyl mercaptan]
giardipain-1; 514 mM pre-incubated 30 min with giardipain-1 16 μg/mL
  effect on giardipain-1 cytopathic damage in IEC6 monolayers: noticeably blocked these effects
[2]
  MLC (mM) ±SD: 3.06 mM (≈ 227 µg/mL)
  IC50: 0.83 ± 0.2 mM
[2]; listed as Allyl Mercaptan (AM)
  MLC (mM) ±SD: 3.06 ± 0.7 mM (≈ 227 µg/mL)
[3]; bands of 75, 60 and 25 kDa, concentration not given
  effect on proteolytic bands in zymogram: significant increase of activity
